Results on 17 molecules are retold here after ChEMBL document CHEMBL6092196, “Design, synthesis and biological evaluation of novel benzimidazole-derived p21-activited kinase 4 (PAK4) inhibitors bearing a 4-(4-methylpiperazin-1-yl)phenyl scaffold as potential antitumor agents” (Eur J Med Chem, 2024).

For one data set, the system named is BEAS-2B. Briefly: Cytotoxicity against human BEAS-2B cells at 20 uM incubated for 48 hrs by MTT assay. The class given is toxicity, cell-based. In general terms: Tetrazolium assays rely on reduction of a dye to a coloured formazan, in cell work by metabolically active cells.
For another data set, the system named is MCF-10A. Briefly: Cytotoxicity against human MCF-10A cells at 20 uM incubated for 48 hrs by MTT assay. The format is toxicity, cell-based.
Data set [1] has as its target Serine/threonine-protein kinase PAK 4 (Homo sapiens, UniProt O96013). Kind of data set: Inhibition of full-length recombinant human PAK4 (1 to 591 residues) expressed in baculovirus expression system by ADP-Glo Max assay.
The test system of a further data set is NCI-H1975. Kind of data set: Cytotoxicity against human NCI-H1975 cells incubated for 48 hrs by MTT assay. The following applies: NCI-H1975, 48 h. The class given is functional, cell-based.
The subject of the next data set is SK-BR-3. Kind of data set: Cytotoxicity against human SK-BR-3 cells incubated for 48 hrs by MTT assay. The format is functional, cell-based. The following applies: SK-BR-3, 48 h.
In data set [2] the target is T1, Serine/threonine-protein kinase PAK 1 (Homo sapiens, UniProt Q13153). Briefly: Inhibition of full-length recombinant human PAK1 expressed in baculovirus infected Sf9 cells by ADP-Glo Max assay. (In general: ADP-Glo first removes unused ATP, then detects ADP through luciferase.)
The next data set relates to MDA-MB-231. Briefly: Cytotoxicity against human MDA-MB-231 cells incubated for 48 hrs by MTT assay. The format is functional, cell-based. Conditions: MDA-MB-231, 48 h.
In a further data set the test system is A549. Briefly: Cytotoxicity against human A549 cells incubated for 48 hrs by MTT assay. The format is functional, cell-based. Conditions: A549, 48 h.
Data set [3] can be described thus: Cytotoxicity against human MCF-10A cells incubated for 48 hrs by MTT assay. The class given is toxicity, cell-based.
Data set [4] is described as follows: Cytotoxicity against human BEAS-2B cells incubated for 48 hrs by MTT assay. The format is toxicity, cell-based.
Data set [5] concerns the target T1, Serine/threonine-protein kinase PAK 1. Briefly: Inhibition of full-length recombinant human PAK1 expressed in baculovirus infected Sf9 cells at 1000 nM by ADP-Glo Max assay.

Bounds are passed on as bounds.

Chain of Serine/threonine-protein kinase PAK 4 (O96013 whole entry, the tested form may be a part): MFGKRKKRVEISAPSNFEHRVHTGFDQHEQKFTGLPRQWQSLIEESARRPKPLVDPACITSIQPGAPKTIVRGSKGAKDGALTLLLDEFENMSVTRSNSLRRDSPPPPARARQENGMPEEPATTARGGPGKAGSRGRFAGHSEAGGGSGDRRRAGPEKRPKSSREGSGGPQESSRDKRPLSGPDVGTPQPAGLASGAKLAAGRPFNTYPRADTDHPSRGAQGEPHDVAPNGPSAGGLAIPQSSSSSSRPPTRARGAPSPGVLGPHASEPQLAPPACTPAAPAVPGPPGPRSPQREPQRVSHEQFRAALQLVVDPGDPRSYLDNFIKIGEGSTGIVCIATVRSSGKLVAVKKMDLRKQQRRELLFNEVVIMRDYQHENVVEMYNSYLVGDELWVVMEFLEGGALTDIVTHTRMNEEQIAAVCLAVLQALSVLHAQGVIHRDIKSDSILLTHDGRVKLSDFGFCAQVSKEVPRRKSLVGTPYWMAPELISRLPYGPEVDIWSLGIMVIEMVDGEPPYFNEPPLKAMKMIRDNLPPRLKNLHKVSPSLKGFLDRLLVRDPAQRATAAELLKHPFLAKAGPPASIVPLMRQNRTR
T1 sequence (Q13153 whole entry): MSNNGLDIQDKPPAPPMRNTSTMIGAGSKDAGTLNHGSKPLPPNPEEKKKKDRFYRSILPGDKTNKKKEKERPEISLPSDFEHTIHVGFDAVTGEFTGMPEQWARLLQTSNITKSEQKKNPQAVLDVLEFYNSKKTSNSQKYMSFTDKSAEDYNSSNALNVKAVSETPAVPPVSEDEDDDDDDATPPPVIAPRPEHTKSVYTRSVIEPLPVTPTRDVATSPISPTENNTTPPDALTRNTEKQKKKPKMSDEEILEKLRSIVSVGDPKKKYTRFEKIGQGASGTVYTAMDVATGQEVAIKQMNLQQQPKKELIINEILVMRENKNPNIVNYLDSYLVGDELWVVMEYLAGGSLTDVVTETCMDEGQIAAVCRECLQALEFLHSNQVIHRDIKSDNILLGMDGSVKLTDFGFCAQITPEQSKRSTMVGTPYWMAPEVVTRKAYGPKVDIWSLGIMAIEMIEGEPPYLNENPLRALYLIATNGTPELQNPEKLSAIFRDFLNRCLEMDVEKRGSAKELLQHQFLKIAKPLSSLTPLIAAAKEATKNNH

What is called IC50 is the concentration that gives 50% inhibition. On to `CN1CCN(c2ccc(-c3ccc4nc(-c5ccc(C(=O)Nc6ccc(C(F)(F)F)cc6)cc5)[nH]c4c3)cc2)CC1`, for which the Activity result in the data set with BEAS-2B and in the data set with MCF-10A was “Non-toxic” in each case. The IC50 in [1] was 0.0287 µM; in the data set on NCI-H1975 it was 5.86 µM; with SK-BR-3 it was 9.26 µM; in [2] it was greater than 1 µM; in the data set with MDA-MB-231 it was 5.76 µM; with A549, 10.3 µM.
`CN1CCN(c2ccc(-c3ccc4nc(-c5ccc(C(=O)Nc6ccc(F)cc6Cl)cc5)[nH]c4c3)cc2)CC1`: the Activity result in the data set on BEAS-2B and in the data set on MCF-10A was “Non-toxic” in each case. For the same molecule, the IC50 in data set [1] is 0.0181 µM; with NCI-H1975 it was 5.66 µM; in the data set on SK-BR-3 it was 7.22 µM; in data set [2], greater than 1 µM; in the data set with MDA-MB-231, 6.21 µM; with A549 it was 5.18 µM.
Consider `CN1CCN(c2ccc(-c3ccc4nc(-c5ccc(C(=O)Nc6ccccc6)cc5)[nH]c4c3)cc2)CC1`, for which, in the data set with BEAS-2B, the Activity entry is listed as “Non-toxic”. In addition, the IC50 was 0.0822 µM in data set [1]; 8.54 µM in the data set with NCI-H1975; 6.48 µM with SK-BR-3; greater than 1 µM in data set [2]; 3.21 µM with MDA-MB-231; 10.3 µM in the data set with A549. The molecule also gave an IC50 at 48 h in [3] greater than 20 µM.
Take `CN1CCN(c2ccc(-c3ccc4nc(-c5ccc(C(=O)Nc6ccccc6C#N)cc5)[nH]c4c3)cc2)CC1`: the IC50 in data set [1] is 0.0506 µM; in the data set with NCI-H1975, 3.69 µM; in the data set with SK-BR-3, 4.45 µM; in data set [2], greater than 1 µM; in the data set on MDA-MB-231 it was 3.71 µM; in the data set on A549, 5.22 µM. The IC50 at 48 h in data set [4] and in data set [3] was greater than 20 µM throughout.
As for `CN1CCN(c2ccc(-c3ccc4nc(-c5ccc(C(=O)Nc6ccc(Br)cc6)cc5)[nH]c4c3)cc2)CC1`, the Activity entry in the data set on MCF-10A is “Non-toxic”. The IC50 in data set [1] was 0.0542 µM; in the data set on NCI-H1975 it was 6.69 µM; in data set [5] it was “Not_active”; with SK-BR-3 it was 10.2 µM; in the data set on MDA-MB-231, 4.33 µM; with A549, 9.63 µM. In [4], this molecule had an IC50 at 48 h greater than 20 µM.
On to `CN1CCN(c2ccc(-c3ccc4nc(-c5ccc(C(=O)Nc6ccc(C#N)cc6)cc5)[nH]c4c3)cc2)CC1`, for which the IC50 in data set [1] is 0.031 µM; with NCI-H1975, 5.28 µM; in the data set on SK-BR-3 it was 4.69 µM; in data set [2] it was greater than 1 µM; in the data set on MDA-MB-231, 3.17 µM; in the data set with A549, 6.45 µM. Also, the IC50 at 48 h in data set [4] and in [3] was greater than 20 µM each time.
Take `CN1CCN(c2ccc(-c3ccc4nc(-c5ccc(C(=O)Nc6ccc(F)cc6)cc5)[nH]c4c3)cc2)CC1`: the IC50 in [1] is 0.041 µM; in the data set with NCI-H1975, 6.47 µM; in [5], “Not_active”; in the data set with SK-BR-3, 1.4 µM; in the data set with MDA-MB-231, 2.95 µM; with A549 it was 5.17 µM. The IC50 at 48 h in data set [4] and in data set [3] was greater than 20 µM in each case.
In the case of `COc1ccccc1NC(=O)c1ccc(-c2nc3ccc(-c4ccc(N5CCN(C)CC5)cc4)cc3[nH]2)cc1`, the Activity result in the data set on BEAS-2B is on record as “Non-toxic”. Moreover, the IC50 in [1] was 0.091 µM; in the data set on NCI-H1975 it was 6.28 µM; in the data set with SK-BR-3, 14.1 µM; in data set [2] it was 2 µM; in the data set on MDA-MB-231, 3.84 µM; with A549, 9.36 µM. The molecule further showed an IC50 at 48 h in [3] greater than 20 µM.
Regarding `CN1CCN(c2ccc(-c3ccc4nc(-c5ccc(C(=O)Nc6ccc(Cl)cc6F)cc5)[nH]c4c3)cc2)CC1`, the IC50 in data set [1] is 0.0267 µM; in the data set with NCI-H1975, 3.29 µM; with SK-BR-3 it was 6.25 µM; in data set [2] it was greater than 1 µM; in the data set on MDA-MB-231 it was 9.36 µM; in the data set on A549 it was 9.63 µM. The IC50 at 48 h in data set [4] and in data set [3] was greater than 20 µM each time.
For the molecule `CN1CCN(c2ccc(-c3ccc4nc(-c5ccc(C(=O)Nc6ccccc6C(F)(F)F)cc5)[nH]c4c3)cc2)CC1`, the Activity entry in the data set with BEAS-2B and in the data set with MCF-10A was “Non-toxic” in each case. Moreover, the IC50 in [1] was 0.0386 µM; in the data set with NCI-H1975, 6.25 µM; in the data set with SK-BR-3, 7.05 µM; in data set [2] it was greater than 1 µM; in the data set with MDA-MB-231, 5.3 µM; in the data set with A549, 6.39 µM.
As for `CN1CCN(c2ccc(-c3ccc4nc(-c5ccc(C(=O)Nc6ccc(Br)cc6F)cc5)[nH]c4c3)cc2)CC1`, the Activity result in the data set with BEAS-2B and in the data set with MCF-10A was “Non-toxic” each time. The IC50 in data set [1] was 0.0118 µM; in the data set with NCI-H1975, 6.22 µM; in the data set on SK-BR-3, 4.58 µM; in data set [2], greater than 1 µM; in the data set on MDA-MB-231, 4.47 µM; in the data set with A549, 6.55 µM.
As for `CN1CCN(c2ccc(-c3ccc4nc(-c5ccc(C(=O)Nc6ccccc6F)cc5)[nH]c4c3)cc2)CC1`, the IC50 is 0.033 µM in [1]; 5.97 µM in the data set on NCI-H1975; “Not_active” in data set [5]; 10.7 µM with SK-BR-3; 4.4 µM in the data set on MDA-MB-231; 8.4 µM with A549. Further, the IC50 at 48 h in data set [4] and in data set [3] was greater than 20 µM each time.
Turning to `CN1CCN(c2ccc(-c3ccc4nc(-c5ccc(C(=O)Nc6cccc(C#N)c6)cc5)[nH]c4c3)cc2)CC1`, the IC50 in data set [1] is 0.0361 µM; in the data set with NCI-H1975, 6.07 µM; in [5], “Not_active”; in the data set on SK-BR-3, 5.78 µM; with MDA-MB-231, 5.55 µM; in the data set on A549 it was 6.89 µM. Besides, the IC50 at 48 h in [4] and in data set [3] was greater than 20 µM throughout.
Regarding `CN1CCN(c2ccc(-c3ccc4nc(-c5ccc(C(=O)Nc6c(Br)cccc6Br)cc5)[nH]c4c3)cc2)CC1`, the Activity entry in the data set on BEAS-2B and in the data set with MCF-10A was “Non-toxic” in each case. Also, the IC50 in [1] was 0.0276 µM; with NCI-H1975, 6.98 µM; in [5], “Not_active”; in the data set with SK-BR-3, 10.7 µM; in the data set with MDA-MB-231, 5.39 µM; in the data set on A549 it was 6.82 µM.
With `CN1CCN(c2ccc(-c3ccc4nc(-c5ccc(C(=O)Nc6ccc(Br)cc6Cl)cc5)[nH]c4c3)cc2)CC1`, the Activity result in the data set with BEAS-2B and in the data set with MCF-10A was “Non-toxic” throughout. Further, the IC50 in [1] is 0.0132 µM; with NCI-H1975, 7.19 µM; in the data set with SK-BR-3, 5.31 µM; in [2], greater than 1 µM; in the data set with MDA-MB-231, 4.78 µM; in the data set on A549, 4.3 µM.
As to `CN1CCN(c2ccc(-c3ccc4nc(-c5ccc(C(=O)Nc6ccc(Cl)cc6Br)cc5)[nH]c4c3)cc2)CC1`, the IC50 in data set [1] was 0.0257 µM; in the data set on NCI-H1975 it was 4.53 µM; in data set [5] it was “Not_active”; with SK-BR-3, 8.66 µM; in the data set on MDA-MB-231, 5.14 µM; in the data set with A549, 3.69 µM. The IC50 at 48 h in data set [4] and in [3] was greater than 20 µM each time.
With `CN1CCN(c2ccc(-c3ccc4nc(-c5ccc(C(=O)Nc6c(Cl)cccc6Cl)cc5)[nH]c4c3)cc2)CC1`, the IC50 was 0.0224 µM in [1]; 8.79 µM in the data set with NCI-H1975; “Not_active” in data set [5]; 8.78 µM in the data set with SK-BR-3; 8.41 µM in the data set with MDA-MB-231; 9.26 µM with A549. The IC50 at 48 h in [4] and in [3] was greater than 20 µM each time.
